Reference: US20240165243A1, “EGFR DEGRADERS AND METHODS OF USE” (BeiGene Switzerland GmbH, priority 2021, published 2024)

Test system: EGFR (Del19/T790M/C797S)
Assay: Cell degradation HTRF assay, H1975-clone #28 cells
Assay type: cell-based
Details: H1975-clone #28 (Del19/T790M/C797S) cells, 16 h treatment; for DC50: HTRF, read-out: H1975-clone#28 DTC DC50; for H1975-clone#28 DTC Dmax (%): maximum percentage of degradation
Description: Cell Degradation of Example 124-189
H1975-#28 and H1975-#25 cells are treated with compounds diluted in 0.2% DMSO cell culture medium on day 2, incubate for 16 h, 37° C., 5% CO2. the final concentration of compounds in all assay is start with 10 uM, 5-fold dilution, total 8 doses were included.
After 16 h treatment, add HTRF lysis buffer to each well; seal the plate and incubate 1 hour at room temperature on a plate shaker; Once the cells are lysed, 16 μL of cell lysate are transferred to a PE 384-well HTRF detection plate; 4 μL of pre-mixed HTRF antibodies are added to each well; Cover the plate with a plate sealer, spin 1000 rpm for 1 min, Incubate overnight at room temperature; Read on BMG PheraStar with HTRF protocol (337 nm-665 nm-620 nm).
The inhibition (degradation) percentage of the compound was calculated by the following equation:
Inhibition percentage of Compound=100−100×(Signal−low control)/(High control−low control), wherein signal=each test compound group.
High control=Cell group with added DMSO and without compound, indicating microplate readings without EGFR degradation;
Dmax is the maximum percentage of inhibition (degradation).
The IC50 (DC50) value of a compound can be obtained by fitting the following equation
Y=Bottom+(TOP−Bottom)/(1+((IC50/X)^hillslope))
Wherein, X and Y are known values, and IC50, Hillslope, Top and Bottom are the parameters obtained by fitting with software. Y is the inhibition percentage (calculated from the equation), X is the concentration of the compound; IC50 is the concentration of the compound when the 50% inhibition is reached. The smaller the IC50 value is, the stronger the inhibitory ability of the compound is. Vice versa, the higher the IC50 value is, the weaker the ability the inhibitory ability of the compound is; Hillslope represents the slope of the fitted curve, generally around 1*; Bottom represents the minimum value of the curve obtained by data fitting, which is generally 0%±20%; Top represents the maximum value of the curve obtained by data fitting, which is generally 100%±20%. The experimental data were fitted by calculating and analyzing with Dotmatics data analysis software. When Dmax<50%, DC50 will be automatically assigned as larger than […].

SMILES	DC50 [nM]	H1975-clone#28 DTC Dmax (%)
CCc1cc(Nc2ncc(Br)c(Nc3cnc4ccccc4c3P(C)(C)=O)n2)c(OC)cc1N1CCC(N2CCN(CCc3ccc4c(c3)C(C)(C)C(=O)N4C3CCC(=O)NC3=O)CC2)CC1 (centres unmarked) [Example 175, 3-(5-(2-(4-(1-(4-((5-bromo-4-((4-(dimethylphosphoryl)quinolin-3-yl)amino)pyrimidin-2-yl)amino)-2-ethyl-5-methoxyphenyl)piperidin-4-yl)piperazin-1-yl)ethyl)-3,3-dimethyl-2-oxoindolin-1-yl)piperidine-2,6-dione]	5.5	47
CCc1cc(Nc2ncc(Br)c(Nc3cnc4ccccc4c3P(C)(C)=O)n2)c(OC)cc1N1CCC(N2CCN(C(=O)C3CC4(C3)CN(c3cc(F)c(C5CCC(=O)NC5=O)c(F)c3)C4)CC2)CC1 (centres unmarked) [Example 178, 3-(4-(6-(4-(1-(4-((5-bromo-4-((4-(dimethylphosphoryl)quinolin-3-yl)amino)pyrimidin-2-yl)amino)-2-ethyl-5-methoxyphenyl)piperidin-4-yl)piperazine-1-carbonyl)-2-azaspiro[3.3]heptan-2-yl)-2,6-difluorophenyl)piperidine-2,6-dione]	2.6	67
COc1cc(N2CCC(N3CCN(C(=O)C4CN(c5cccc6c5n(C)c(=O)n6C5CCC(=O)NC5=O)C4)CC3)CC2)c(C)cc1Nc1ncc(Br)c(Nc2cnc3ccccc3c2P(C)(C)=O)n1 (centres unmarked) [Example 179, 3-(4-(3-(4-(1-(4-((5-bromo-4-((4-(dimethylphosphoryl)quinolin-3-yl)amino)pyrimidin-2-yl)amino)-5-methoxy-2-methylphenyl)piperidin-4-yl)piperazine-1-carbonyl)azetidin-1-yl)-3-methyl-2-oxo-2,3-dihydro-1H-benzo[d]imidazol-1-yl)piperidine-2,6-dione]	2.6	54
CCc1cc(Nc2ncc(Br)c(Nc3cnc4c(F)cccc4c3P(C)(C)=O)n2)c(OC)cc1N1CCC(N2CCN(CCc3cc(F)c(C4CCC(=O)NC4=O)c(F)c3)CC2)CC1 (centres unmarked) [Example 181, 3-(4-(2-(4-(1-(4-((5-bromo-4-((4-(dimethylphosphoryl)-8-fluoroquinolin-3-yl)amino)pyrimidin-2-yl)amino)-2-ethyl-5-methoxyphenyl)piperidin-4-yl)piperazin-1-yl)ethyl)-2,6-difluorophenyl)piperidine-2,6-dione]	4.2	82

The next compounds have a lower DC50 than those just listed; values first:

DC50 [nM]	SMILES	H1975-clone#28 DTC Dmax (%)
1.6	CCc1cc(Nc2ncc(Br)c(Nc3cnc4ccccc4c3P(C)(C)=O)n2)c(OC)cc1N1CCC(N2CCN(CCc3ccc4c(c3)oc(=O)n4C3CCC(=O)NC3=O)CC2)CC1 (centres unmarked) [Example 176, 3-(6-(2-(4-(1-(4-((5-bromo-4-((4-(dimethylphosphoryl)quinolin-3-yl)amino)pyrimidin-2-yl)amino)-2-ethyl-5-methoxyphenyl)piperidin-4-yl)piperazin-1-yl)ethyl)-2-oxobenzo[d]oxazol-3(2H)-yl)piperidine-2,6-dione]	73
2	CCc1cc(Nc2ncc(Br)c(Nc3cnc4ccccc4c3P(C)(C)=O)n2)c(OC)cc1N1CCC(N2CCN(CCc3cc(F)c(C4CCC(=O)NC4=O)c(F)c3F)CC2)CC1 (centres unmarked) [Example 180, 3-(4-(2-(4-(1-(4-((5-bromo-4-((4-(dimethylphosphoryl)quinolin-3-yl)amino)pyrimidin-2-yl)amino)-2-ethyl-5-methoxyphenyl)piperidin-4-yl)piperazin-1-yl)ethyl)-2,3,6-trifluorophenyl)piperidine-2,6-dione]	83
0.8	CCc1cc(Nc2ncc(Br)c(Nc3cnc4c(F)cccc4c3P(C)(C)=O)n2)c(OC)cc1N1CCC(N2CCN(C(=O)C3CCN(c4ccc5c(c4)C(C)(C)C(=O)N5C4CCC(=O)NC4=O)CC3)CC2)CC1 (centres unmarked) [Example 182, 3-(5-(4-(4-(1-(4-((5-bromo-4-((4-(dimethylphosphoryl)-8-fluoroquinolin-3-yl)amino)pyrimidin-2-yl)amino)-2-ethyl-5-methoxyphenyl)piperidin-4-yl)piperazine-1-carbonyl)piperidin-1-yl)-3,3-dimethyl-2-oxoindolin-1-yl)piperidine-2,6-dione]	56
